Data set [1] in a line: Clinical study (PK study): relative bioavailability and PK profile of estradiol after wafers vs oral tablet and intranasal spray. Type of data set: in vivo, healthy postmenopausal women. Conditions: female, human. Here is the method: Finally, it is the present inventors' experience that the serum estradiol values are somewhat dependent on the applied laboratory assay.
The following not-dose-normalised data, where all parameters are expressed in percentage of the respective Aerodiol® values, were obtained:
Estradiol may be determined by two different assays:
The analytes and their deuterated internal standards are extracted from 1.00 ml of human serum using BondElut Certify® solid-phase cartridges. Estradiol and estrone are eluted from the solid phase cartridges with ethyl acetate. The analytes undergo three separate derivatisation steps: (1) reaction with pentafluorobenzoyl chloride, (2) reaction with O-(2,3,4,5,6-pentafluorobenzyl)-hydroxylamine hydrochloride, and (3) reaction with MSTFA. The derivatised analytes are then separated by gas chromatography using a DB-17 fused silica capillary column and detected by tandem mass spectrometry using negative ion chemical ionization. A 1/(concentration)^2 weighted least-squares regression procedure is used to fit a linear function to the calibration data.
A 500 μl sample aliquot is fortified with 25 μl of internal standard working solution. Analytes are isolated through liquid-liquid extraction with 5.0 ml of 10:90 (v/v) ethyl acetate/hexane. The solvent is evaporated under a stream of nitrogen at 40-50° C. and the remaining residue is derivatizsd. The derivatised analytes are extracted into 3.0 m of 10:90 (v/v) ethyl acetate/hexane, the solvent is evaporated, and the remaining residue is reconstituted with 150 μl acetonitrile and 200 μl water. The final extract is analyzed via high-performance liquid chromatography with tandem mass spectrometry detection.

The conditions of data set [2]: Kuhnt et al.; cited from earlier work.
The conditions of data set [3]: intranasal, cited from earlier work.

For orientation: Cmax means the peak of the concentration-time curve.

For the compound `CCCCC(=O)O[C@H]1CC[C@H]2[C@@H]3CCc4cc(O)ccc4[C@H]3CC[C@]12C` [estradiol valerate], in data set [1] (in vivo), the bioavailability is given as 30-60% and the “bioavailability, usually” value is given as 30-50%.
Turning to `C[C@]12CC[C@@H]3c4ccc(O)cc4CC[C@H]3[C@@H]1CC[C@@H]2O` [estradiol], the Cmax in data set [1] (serum, 90 ug) was in the range of 0.5 to 0.8 ng/mL. In data set [2], the “bioavailability after oral administration” value was “about 5%”. Besides, the “time until pre-treatment level is reached” value in data set [3] (after administration) was “about 12 hours”. In addition, the “time to maximum plasma levels” value in data set [3] was 10 to 30 min.

(Values after patent US20110097405A1, “ESTRADIOL-CONTAINING DRUG DELIVERY SYSTEM” (Bayer Schering Pharma Aktiengesellschaft, priority 2008, published 2011).)
